# According to patent publication US8575183B2, “Heterocyclic compounds and their uses” (priority 2010, dated 2013):
# Several values for one entry are separate records, joined by “and”; a condition that tells them apart may be missing. Equal values may be shown once.
# Molecular target: T1, PI3k δ (Homo sapiens, UniProt O00329)
# T1 construct: Full length p110 subunits of PI3k α, β and δ; polyHis (N); made in house; host or cells: Sf9 insect cells (baculovirus)
# Experiment: biochemical
# Assay type: biochemical
# Conditions: not given
# Procedure: Full length p110 subunits of PI3k α, β and δ, N-terminally labeled with polyHis tag, were coexpressed with p85 with Baculo virus expression vectors in sf9 insect cells. P110/p85 heterodimers were purified by sequential Ni-NTA, Q-HP, Superdex-100 chromatography. Purified α, β and δ isozymes were stored at −20° C. in 20 mM Tris, pH 8, 0.2M NaCl, 50% glycerol, 5 mM DTT, 2 mM Na cholate. […] The γ isozyme was purified by sequential Ni-NTA, Superdex-200, Q-HP chromatography. The γ isozyme was stored frozen at −80° C. in NaH2PO4, pH 8, 0.2M NaCl, 1% ethylene glycol, 2 mM β-mercaptoethanol.
# Phospatidyl inositol phosphoacceptor, Ptdlns(4,5)P2 P4508, was from Echelon Biosciences. […] Test compounds were dissolved in dimethyl sulfoxide and diluted with three-fold serial dilutions. The compound in DMSO (1 μL) was added per test well, and the inhibition relative to reactions containing no compound, with and without enzyme was determined. After assay incubation at rt, the reaction was stopped and residual ATP determined by addition of an equal volume of a commercial ATP bioluminescence kit (Perkin Elmer EasyLite) according to the manufacturer's instructions, and detected using a AnalystGT luminometer.
# T1 sequence (O00329 whole entry): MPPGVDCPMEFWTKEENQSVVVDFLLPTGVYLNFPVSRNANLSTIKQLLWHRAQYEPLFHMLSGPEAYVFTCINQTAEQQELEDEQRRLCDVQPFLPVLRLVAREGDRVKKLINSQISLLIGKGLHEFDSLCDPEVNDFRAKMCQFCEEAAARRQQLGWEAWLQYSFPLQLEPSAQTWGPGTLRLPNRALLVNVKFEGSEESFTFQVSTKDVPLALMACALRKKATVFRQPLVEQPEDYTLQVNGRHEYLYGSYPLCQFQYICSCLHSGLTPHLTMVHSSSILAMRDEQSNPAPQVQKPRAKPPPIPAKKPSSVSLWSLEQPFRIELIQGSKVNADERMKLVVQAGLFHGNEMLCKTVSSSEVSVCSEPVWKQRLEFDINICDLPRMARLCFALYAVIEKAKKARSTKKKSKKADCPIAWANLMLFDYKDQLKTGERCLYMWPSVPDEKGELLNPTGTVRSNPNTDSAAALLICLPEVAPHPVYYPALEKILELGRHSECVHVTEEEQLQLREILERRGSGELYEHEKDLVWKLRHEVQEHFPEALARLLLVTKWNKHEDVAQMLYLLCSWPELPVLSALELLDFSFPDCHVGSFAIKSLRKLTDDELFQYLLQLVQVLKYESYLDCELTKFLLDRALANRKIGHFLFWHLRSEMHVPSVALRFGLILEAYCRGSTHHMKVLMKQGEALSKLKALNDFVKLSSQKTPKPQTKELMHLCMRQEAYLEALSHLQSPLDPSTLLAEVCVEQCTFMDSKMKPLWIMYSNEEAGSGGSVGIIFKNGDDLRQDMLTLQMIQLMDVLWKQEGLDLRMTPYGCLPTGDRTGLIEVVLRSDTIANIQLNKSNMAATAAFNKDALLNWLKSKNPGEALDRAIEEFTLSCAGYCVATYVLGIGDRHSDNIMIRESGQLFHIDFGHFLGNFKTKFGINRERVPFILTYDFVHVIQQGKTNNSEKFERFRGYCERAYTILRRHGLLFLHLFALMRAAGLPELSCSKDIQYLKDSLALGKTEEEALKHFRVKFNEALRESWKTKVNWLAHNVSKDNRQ
# T1 sequence (P27986 whole entry partner): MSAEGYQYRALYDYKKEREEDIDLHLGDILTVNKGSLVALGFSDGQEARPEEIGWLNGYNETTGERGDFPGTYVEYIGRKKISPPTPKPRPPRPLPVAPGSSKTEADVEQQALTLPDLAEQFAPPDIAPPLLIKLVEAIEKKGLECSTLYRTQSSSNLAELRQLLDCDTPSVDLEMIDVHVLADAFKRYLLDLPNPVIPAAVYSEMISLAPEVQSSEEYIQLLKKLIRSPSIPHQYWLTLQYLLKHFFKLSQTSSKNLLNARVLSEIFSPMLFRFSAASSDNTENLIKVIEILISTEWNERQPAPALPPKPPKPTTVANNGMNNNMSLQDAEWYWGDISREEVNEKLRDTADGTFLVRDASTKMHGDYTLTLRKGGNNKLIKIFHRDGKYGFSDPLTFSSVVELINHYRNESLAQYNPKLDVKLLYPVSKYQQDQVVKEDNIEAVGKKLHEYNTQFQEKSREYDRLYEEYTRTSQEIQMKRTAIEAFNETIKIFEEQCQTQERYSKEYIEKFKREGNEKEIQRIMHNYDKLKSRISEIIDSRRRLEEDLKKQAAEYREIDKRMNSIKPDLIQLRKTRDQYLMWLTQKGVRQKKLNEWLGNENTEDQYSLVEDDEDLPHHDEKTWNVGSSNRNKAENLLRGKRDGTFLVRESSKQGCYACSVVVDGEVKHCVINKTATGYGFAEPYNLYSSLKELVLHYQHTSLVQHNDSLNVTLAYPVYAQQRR
row,Compound,Ki
1,"C[C@H](Nc1ncnc(N)c1C#N)c1nc2ccc(F)cc2n1-c1cncc(-c2ccccn2)c1 [4-amino-6-(((1S)-1-(1-(2,3′-bipyridin-5′-yl)-6-fluoro-1H-benzimidazol-2-yl)ethyl)amino)-5-pyrimidinecarbonitrile]",248 nM
2,CC(Nc1ncnc(N)c1C#N)c1nc2ncccc2n1-c1ccccn1 (centres unmarked),2900 nM

# Same assay, conditions: read-out: PI3k δ Ki
row,Compound,Ki
1,"C[C@H](Nc1ncnc(N)c1C#N)c1nc2ncccc2n1-c1ccccn1 [4-amino-6-(((1S)-1-(1-(2-pyridinyl)-1H-imidazo[4,5-b]pyridin-2-yl)ethyl)amino)-5-pyrimidinecarbonitrile]",1620 nM
2,"C[C@H](Nc1ncnc(N)c1C#N)c1nc2ccc(F)cn2c1-c1ccc(Cl)cc1 [4-amino-6-(((1S)-1-(3-(4-chlorophenyl)-6-fluoroimidazo[1,2-a]pyridin-2-yl)ethyl)amino)-5-pyrimidinecarbonitrile]",25.1 nM
3,"C[C@H](Nc1ncnc(N)c1C#N)c1nc2c(F)cccc2n1-c1cc(F)cc(F)c1 [4-amino-6-(((1S)-1-(1-(3,5-difluorophenyl)-4-fluoro-1H-benzimidazol-2-yl)ethyl)amino)-5-pyrimidinecarbonitrile]",6.4 nM and 2.1 nM
4,"C[C@H](Nc1ncnc(N)c1C#N)c1nc2c(F)cc(F)cc2n1-c1cc(F)cc(F)c1 [4-amino-6-(((1S)-1-(1-(3,5-difluorophenyl)-4,6-difluoro-1H-benzimidazol-2-yl)ethyl)amino)-5-pyrimidinecarbonitrile]",2.6 nM
5,CC[C@H](Nc1ncnc(N)c1C#N)c1nc2cccc(C(=O)NC)c2n1C1CC1 [2-((1S)-1-((6-amino-5-cyano-4-pyrimidinyl)amino)propyl)-1-cyclopropyl-N-methyl-1H-benzimidazole-7-carboxamide],39 nM
6,"C[C@H](Nc1ncnc(N)c1C#N)c1nc2cccc(C(=O)N3CCN(C)CC3)n2c1-c1ccccc1 [4-amino-6-(((1S)-1-(5-((4-methyl-1-piperazinyl)carbonyl)-3-phenylimidazo[1,2-a]pyridin-2-yl)ethyl)amino)-5-pyrimidinecarbonitrile]",11.8 nM
7,"C[C@H](Nc1ncnc(N)c1C#N)c1nc2ncccn2c1-c1ccccn1 [4-amino-6-(((1S)-1-(3-(2-pyridinyl)imidazo[1,2-a]pyrimidin-2-yl)ethyl)amino)-5-pyrimidinecarbonitrile]",1580 nM
8,CNC(=O)c1cccc2nc([C@H](C)Nc3ncnc(N)c3-c3ccc(S(C)(=O)=O)cc3)n(C3CC3)c12 [2-((1S)-1-((6-amino-5-(4-(methylsulfonyl)phenyl)-4-pyrimidinyl)amino)ethyl)-1-cyclopropyl-N-methyl-1H-benzimidazole-7-carboxamide],10.5 nM
9,C[C@H](Nc1ncnc(N)c1C#N)c1nc2cc(F)ccc2n1-c1cncc(F)c1 [4-amino-6-(((1S)-1-(5-fluoro-1-(5-fluoro-3-pyridinyl)-1H-benzimidazol-2-yl)ethyl)amino)-5-pyrimidinecarbonitrile],96.4 nM
10,C[C@H](Nc1ncnc(N)c1C#N)c1nc2cccc(S(C)(=O)=O)c2[nH]1 [4-amino-6-(((1S)-1-(7-(methylsulfonyl)-1H-benzimidazol-2-yl)ethyl)amino)-5-pyrimidinecarbonitrile],45.5 nM
11,C[C@H](Nc1ncnc(N)c1C#N)c1nc2cccc(F)c2[nH]1 [4-amino-6-(((1S)-1-(7-fluoro-1H-benzimidazol-2-yl)ethyl)amino)-5-pyrimidinecarbonitrile],173 nM
12,"C[C@H](Nc1ncnc(N)c1C#N)c1nc2ccc(F)cn2c1-c1cc(F)cc(Cl)c1 [4-amino-6-(((1S)-1-(3-(3-chloro-5-fluorophenyl)-6-fluoroimidazo[1,2-a]pyridin-2-yl)ethyl)amino)-5-pyrimidinecarbonitrile]",8.8 nM
13,CC[C@H](Nc1ncnc(N)c1C#N)c1nc2cccc(S(C)(=O)=O)c2n1CC1CC1 [4-amino-6-(((1S)-1-(1-(cyclopropylmethyl)-7-(methylsulfonyl)-1H-benzimidazol-2-yl)propyl)amino)-5-pyrimidinecarbonitrile],2.19 nM
14,C[C@H](Nc1ncnc(N)c1C#N)c1nc2cccc(Br)c2n1-c1cncc(F)c1 [4-amino-6-(((1S)-1-(7-bromo-1-(5-fluoro-3-pyridinyl)-1H-benzimidazol-2-yl)ethyl)amino)-5-pyrimidinecarbonitrile],48.1 nM
15,CNC(=O)c1cccc(-n2c([C@H](C)Nc3ncnc(N)c3C#N)nc3ccc(F)cc32)c1 [3-(2-((1S)-1-((6-amino-5-cyano-4-pyrimidinyl)amino)ethyl)-6-fluoro-1H-benzimidazol-1-yl)-N-methylbenzamide],18.3 nM
16,"C[C@@H](Nc1ncnc(N)c1C#N)c1nc2c(F)cc(F)cc2n1-c1cc(F)cc(F)c1 [4-amino-6-(((1R)-1-(1-(3,5-difluorophenyl)-4,6-difluoro-1H-benzimidazol-2-yl)ethyl)amino)-5-pyrimidinecarbonitrile]",251 nM
17,C[C@H](Nc1ncnc2[nH]cnc12)c1nc2cccc(F)c2[nH]1 [N-((1S)-1-(7-fluoro-1H-benzimidazol-2-yl)ethyl)-9H-purin-6-amine],650 nM

row,Compound,Ki
1,C[C@H](Nc1ncnc(N)c1C#N)c1nc2ccc(F)cc2n1CC1CC1 [4-amino-6-(((1S)-1-(1-(cyclopropylmethyl)-6-fluoro-1H-benzimidazol-2-yl)ethyl)amino)-5-pyrimidinecarbonitrile],3.1 nM
2,"C[C@H](Nc1ncnc(N)c1C#N)c1nc2cccc(C(=O)NC3CC3)c2n1C1CC1 [2-((1S)-1-((6-amino-5-cyano-4-pyrimidinyl)amino)ethyl)-N,1-dicyclopropyl-1H-benzimidazole-7-carboxamide]",17.5 nM
3,CNC(=O)c1cccc2nc([C@H](C)Nc3ncnc(N)c3S(C)(=O)=O)n(C3CC3)c12 [2-((1S)-1-((6-amino-5-(methylsulfonyl)-4-pyrimidinyl)amino)ethyl)-1-cyclopropyl-N-methyl-1H-benzimidazole-7-carboxamide],30 nM
4,"C[C@H](Nc1ncnc(N)c1C#N)c1nc2c(F)cc(F)cc2n1-c1cccnc1 [4-amino-6-(((1S)-1-(4,6-difluoro-1-(3-pyridinyl)-1H-benzimidazol-2-yl)ethyl)amino)-5-pyrimidinecarbonitrile]",6.74 nM
5,"C[C@H](Nc1ncnc(N)c1C#N)c1nc2cccnc2n1-c1cc(F)cc(F)c1 [4-amino-6-(((1S)-1-(3-(3,5-difluorophenyl)-3H-imidazo[4,5-b]pyridin-2-yl)ethyl)amino)-5-pyrimidinecarbonitrile]",138 nM
6,C[C@H](Nc1ncnc2[nH]cnc12)c1nc2ccc(F)cc2n1-c1cccc(F)c1 [N-((1S)-1-(6-fluoro-1-(3-fluorophenyl)-1H-benzimidazol-2-yl)ethyl)-9H-purin-6-amine],2.7 nM
7,CNC(=O)c1cccc2nc([C@H](C)Nc3ncnc(N)c3C(F)(F)F)n(C3CC3)c12 [2-((1S)-1-((6-amino-5-(trifluoromethyl)-4-pyrimidinyl)amino)ethyl)-1-cyclopropyl-N-methyl-1H-benzimidazole-7-carboxamide],37 nM
8,"C[C@@H](Nc1ncnc(N)c1C#N)c1nc2c(F)cc(F)cc2n1-c1cccnc1 [4-amino-6-(((1R)-1-(4,6-difluoro-1-(3-pyridinyl)-1H-benzimidazol-2-yl)ethyl)amino)-5-pyrimidinecarbonitrile]",1290 nM
9,CC[C@H](Nc1ncnc(N)c1C#N)c1nc2cccc(S(C)(=O)=O)c2n1Cc1ccc(F)cc1 [4-amino-6-(((1S)-1-(1-(4-fluorobenzyl)-7-(methylsulfonyl)-1H-benzimidazol-2-yl)propyl)amino)-5-pyrimidinecarbonitrile],27.4 nM
10,C[C@H](Nc1ncnc(N)c1C#N)c1nc2cc(F)ccc2n1-c1ccccc1 [4-amino-6-(((1S)-1-(5-fluoro-1-phenyl-1H-benzimidazol-2-yl)ethyl)amino)-5-pyrimidinecarbonitrile],1.7 nM
11,"COC(=O)c1cccc2nc([C@H](C)Nc3ncnc(N)c3C#N)c(-c3cccnc3)n12 [methyl 2-((1S)-1-((6-amino-5-cyano-4-pyrimidinyl)amino)ethyl)-3-(3-pyridinyl)imidazo[1,2-a]pyridine-5-carboxylate]",147 nM
12,"C[C@H](Nc1ncnc(N)c1C#N)c1nc2cc(F)c(F)cc2n1-c1cncc(F)c1 [4-amino-6-(((1S)-1-(5,6-difluoro-1-(5-fluoro-3-pyridinyl)-1H-benzimidazol-2-yl)ethyl)amino)-5-pyrimidinecarbonitrile]",57.5 nM
13,C[C@@H](Nc1ncnc(N)c1C#N)c1nc2ccc(F)cc2n1-c1cccc(C#N)c1 [4-amino-6-(((1R)-1-(1-(3-cyanophenyl)-6-fluoro-1H-benzimidazol-2-yl)ethyl)amino)-5-pyrimidinecarbonitrile],411 nM
14,CC[C@H](Nc1ncnc(N)c1C#N)c1nc2cccc(C(F)(F)F)c2n1Cc1ccc(F)cc1 [4-amino-6-(((1S)-1-(1-(4-fluorobenzyl)-7-(trifluoromethyl)-1H-benzimidazol-2-yl)propyl)amino)-5-pyrimidinecarbonitrile],464 nM
15,CC[C@H](Nc1ncnc2[nH]cnc12)c1nc2cccc(C(F)(F)F)c2n1CC1CC1 [N-((1S)-1-(1-(cyclopropylmethyl)-7-(trifluoromethyl)-1H-benzimidazol-2-yl)propyl)-9H-purin-6-amine],100 nM
16,C[C@H](Nc1ncnc(N)c1C#N)c1nc2cccc(F)c2n1C1CC1 [4-amino-6-(((1S)-1-(1-cyclopropyl-7-fluoro-1H-benzimidazol-2-yl)ethyl)amino)-5-pyrimidinecarbonitrile],12.2 nM
